Species on record: Rattus norvegicus
Test: DrugMatrix - Regimen: Daily Repeat
Assay type: toxicity, organism-based, Sprague-Dawley
Parameters: regimen Daily Repeat, gender Male, age 6-8 weeks
Conditions: in vivo, po, route oral GAVAGE, vehicle .5 % CMC; for ABSOLUTE BASOPHIL / ABSOLUTE EOSINOPHIL / ABSOLUTE LYMPHOCYTE / ABSOLUTE MONOCYTE / ABSOLUTE SEGMENTED NEUTROPHIL / BASOPHIL / EOSINOPHIL / ERYTHROCYTE COUNT / HEMATOCRIT / HEMOGLOBIN / LEUKOCYTE COUNT / LYMPHOCYTE / MEAN CORPUSCULAR HEMOGLOBIN / MEAN CORPUSCULAR HEMOGLOBIN CONCENTRATION / MEAN CORPUSCULAR VOLUME / MONOCYTE / NEUTROPHIL / NUCLEATED RED BLOOD CELLS / PLATELET COUNT: tissue Blood; for ALANINE AMINOTRANSFERASE / ALBUMIN / ALKALINE PHOSPHATASE / ASPARTATE AMINOTRANSFERASE / BLOOD UREA NITROGEN / CARBON DIOXIDE / CHLORIDE / CHOLESTEROL / CREATINE PHOSPHOKINASE / CREATININE / GLUCOSE / LACTATE DEHYDROGENASE / LIPASE / PHOSPHORUS / POTASSIUM / SODIUM / TOTAL BILIRUBIN / TOTAL PROTEIN / URIC ACID: tissue Plasma
[1] = 0 mg/kg, 72 h, dose level Control, time 3 day
[2] = 0 mg/kg, 120 h, dose level Control, time 5 day
[3] = 15 mg/kg, 72 h, dose level Low, time 3 day

## CN1C(=O)CN=C(c2ccccc2)c2cc(Cl)ccc21 [DIAZEPAM]
[1]
  ABSOLUTE BASOPHIL: 0 CELLS/uL
  ABSOLUTE EOSINOPHIL: 0 CELLS/uL
  ABSOLUTE LYMPHOCYTE: 12269.67 CELLS/uL
  ABSOLUTE MONOCYTE: 160.33 CELLS/uL
  ABSOLUTE SEGMENTED NEUTROPHIL: 970 CELLS/uL
  BASOPHIL: 0%
  EOSINOPHIL: 0%
  ERYTHROCYTE COUNT: 5.76 x10E6/uL
  HEMATOCRIT: 36.57%
  HEMOGLOBIN: 14.22 G/DL
  LEUKOCYTE COUNT: 13.4 x10E3/uL
  LYMPHOCYTE: 91.67%
  MEAN CORPUSCULAR HEMOGLOBIN: 24.67 pg
  MEAN CORPUSCULAR HEMOGLOBIN CONCENTRATION: 38.85 G/DL
  MEAN CORPUSCULAR VOLUME: 63.52 fL
  MONOCYTE: 1.17%
  NEUTROPHIL: 7.17%
  NUCLEATED RED BLOOD CELLS: 0.33 /100WBC
  PLATELET COUNT: 1250.83 x10E3/uL
  ALANINE AMINOTRANSFERASE: 49.17 u/L
  ALBUMIN: 4.33 G/DL
  ALKALINE PHOSPHATASE: 378.5 u/L
  ASPARTATE AMINOTRANSFERASE: 82.17 u/L
  BLOOD UREA NITROGEN: 15 mg/dL
  CARBON DIOXIDE: 34.33 mmol/L
  CHLORIDE: 99.17 MEQ/L
  CHOLESTEROL: 71.17 mg/dL
  CREATINE PHOSPHOKINASE: 258.67 u/L
  CREATININE: 0.18 mg/dL
  GLUCOSE: 142.67 mg/dL
  LACTATE DEHYDROGENASE: 154.33 u/L
  LIPASE: 9 u/L
  PHOSPHORUS: 11.67 mg/dL
  POTASSIUM: 7.13 MEQ/L
  SODIUM: 142.22 MEQ/L
  TOTAL BILIRUBIN: 0.18 mg/dL
  TOTAL PROTEIN: 5.77 G/DL
  URIC ACID: 1.55 mg/dL
[2]
  ABSOLUTE BASOPHIL: 0 CELLS/uL
  ABSOLUTE EOSINOPHIL: 23.33 CELLS/uL
  ABSOLUTE LYMPHOCYTE: 14943.67 CELLS/uL
  ABSOLUTE MONOCYTE: 32 CELLS/uL
  ABSOLUTE SEGMENTED NEUTROPHIL: 1084.33 CELLS/uL
  BASOPHIL: 0%
  EOSINOPHIL: 0.17%
  ERYTHROCYTE COUNT: 5.71 x10E6/uL
  HEMATOCRIT: 35.28%
  HEMOGLOBIN: 14.27 G/DL
  LEUKOCYTE COUNT: 16.08 x10E3/uL
  LYMPHOCYTE: 93%
  MEAN CORPUSCULAR HEMOGLOBIN: 25.02 pg
  MEAN CORPUSCULAR HEMOGLOBIN CONCENTRATION: 40.43 G/DL
  MEAN CORPUSCULAR VOLUME: 61.82 fL
  MONOCYTE: 0.17%
  NEUTROPHIL: 6.67%
  NUCLEATED RED BLOOD CELLS: 0.33 /100WBC
  PLATELET COUNT: 1274 x10E3/uL
  ALANINE AMINOTRANSFERASE: 54.17 u/L
  ALBUMIN: 4.22 G/DL
  ALKALINE PHOSPHATASE: 373.17 u/L
  ASPARTATE AMINOTRANSFERASE: 81.83 u/L
  BLOOD UREA NITROGEN: 16.67 mg/dL
  CARBON DIOXIDE: 30.33 mmol/L
  CHLORIDE: 99 MEQ/L
  CHOLESTEROL: 71 mg/dL
  CREATINE PHOSPHOKINASE: 273.5 u/L
  CREATININE: 0.22 mg/dL
  GLUCOSE: 141.83 mg/dL
  LACTATE DEHYDROGENASE: 153.67 u/L
  LIPASE: 10.33 u/L
  PHOSPHORUS: 11.38 mg/dL
  POTASSIUM: 7.08 MEQ/L
  SODIUM: 142.75 MEQ/L
  TOTAL BILIRUBIN: 0.18 mg/dL
  TOTAL PROTEIN: 6.1 G/DL
  URIC ACID: 1.67 mg/dL
[3]
  ABSOLUTE BASOPHIL: 0 CELLS/uL
  ABSOLUTE EOSINOPHIL: 0 CELLS/uL
  ABSOLUTE LYMPHOCYTE: 12631.33 CELLS/uL
  ABSOLUTE MONOCYTE: 43.67 CELLS/uL
  ABSOLUTE SEGMENTED NEUTROPHIL: 1191.67 CELLS/uL
  BASOPHIL: 0%
  EOSINOPHIL: 0%
  ERYTHROCYTE COUNT: 5.07 x10E6/uL
  HEMATOCRIT: 32.77%
  HEMOGLOBIN: 13.23 G/DL
  LEUKOCYTE COUNT: 13.87 x10E3/uL
  LYMPHOCYTE: 91%
  MEAN CORPUSCULAR HEMOGLOBIN: 26.23 pg
  MEAN CORPUSCULAR HEMOGLOBIN CONCENTRATION: 40.4 G/DL
  MEAN CORPUSCULAR VOLUME: 64.77 fL
  MONOCYTE: 0.33%
  NEUTROPHIL: 8.67%
  NUCLEATED RED BLOOD CELLS: 0 /100WBC
  PLATELET COUNT: 1275.67 x10E3/uL
  ALANINE AMINOTRANSFERASE: 54 u/L
  ALBUMIN: 4.07 G/DL
  ALKALINE PHOSPHATASE: 332.67 u/L
  ASPARTATE AMINOTRANSFERASE: 79.33 u/L
  BLOOD UREA NITROGEN: 16.67 mg/dL
  CARBON DIOXIDE: 27 mmol/L
  CHLORIDE: 101.67 MEQ/L
  CHOLESTEROL: 72.67 mg/dL
  CREATINE PHOSPHOKINASE: 227.67 u/L
  CREATININE: 0.25 mg/dL
  GLUCOSE: 180 mg/dL
  LACTATE DEHYDROGENASE: 173.33 u/L
  LIPASE: 9 u/L
  PHOSPHORUS: 13.13 mg/dL
  POTASSIUM: 7.43 MEQ/L
  SODIUM: 143.37 MEQ/L
  TOTAL BILIRUBIN: 0.2 mg/dL
  TOTAL PROTEIN: 5.57 G/DL
  URIC ACID: 1.97 mg/dL

Reference: ChEMBL document CHEMBL3885881, “DrugMatrix”
